Patent publication US20150342961A1, “USE OF PROSTAGLANDIN E1 (PGE1) AND MISOPROSTOL FOR TREATING CHRONIC MYELOGENOUS/MYELOID LEUKEMIA (CML)” (priority 2014, published 2015)
Entries after “also recorded” stand apart in the source; their conditions may differ. Structures can show the parent of a compound that is named as a salt.

Tests used:
CML = experiment: Screen of drugs simulating Tcf1 and Lef1 elimination, effect on CML
Source text: (§1) In view of the Inventor's discovery, the Inventor set out to screen for drugs that would simulate the effect of eliminating Tcf1 and Lef1 for use in treatment of CML. Inventor experimented with the following drugs which are known to at least partly simulate the effect of eliminating Tcf1 and Lef1: Carbimazole, Cinchonine, Gibberellic acid, Hippeastrine hydrobromide, Dimaprit dihydrochloride, Spaglumic acid, and Vigabatrin. […] Inventor further experimented with Trichostatin A and Vorinostat. […] Inventor thereafter turned to prostaglandins for treating CML.

LSCs [1] = experiment: Screen of drugs simulating Tcf1 and Lef1 elimination, effect on LSCs
Source text: as §1

HSCs = tested on: HSCs
Source text: as §1

CML mouse model = experiment: CML mouse model, survival of primary recipients after BMT; format: in vivo; details: for survival rate at about day 35 / time mice survived after bone marrow transplantation (BMT) before survival declined: 2.5 mg/kg daily, days 8-36 post-BMT
Procedure: Bone marrow cells (BM) were isolated from donor mice, and HSCs were enriched and delivered the BCR-ABL gene using retroviral transduction. The BM cells were then transplanted into another group of recipient mice (called primary recipients here). The recipients will develop CML because the donor HSCs are transformed by BCR-ABL. On day 8 after BM transplantation (BMT), the primary recipients were treated with DMSO (the solvent to dissolve PGE1 or PGE2), PGE1, PGE2, Imatinib or both PGE1 and Imatinib. The survival of the recipients was monitored.
CML was established as in FIG. 5. During days 8-36 post-bone marrow transplantation (BMT), the recipients were treated daily with 2.5 mg/kg body weight PGE1 or PGE2, or the vehicle DMSO. Statistical significance was determined by log-rank test. Data are pooled results from 2 independent experiments with a total of 10 CML recipients tested under each condition.
CML was established as in FIG. 5. During days 8-80 post-BMT, the recipients were treated daily with Imatinib alone (100 mg/kg body weight, b.i.d.) or in combination with PGE1 (2.5 mg/kg body weight). Statistical significance was determined by log-rank test. Data are pooled results from 2 independent experiments with a total of 9-10 CML recipients tested under each condition.
(§2) CML animals were treated with the solvent dimethyl sulfoxide (DMSO) as a negative control (See FIG. 6).

LSCs [2] = experiment: LSCs from treated primary recipients transplanted into secondary recipients, propagation of CML; format: in vivo, mouse; details: secondary recipients untreated
Procedure: The CML model was established in the primary recipients as in FIG. 5. The recipients were then treated with Imatinib, PGE1 or Misoprostol alone, or in combination during days 8-21 post-BMT. The LSCs were isolated from the BM of the primary recipients and transplanted into another set of secondary recipients. The ability of LSCs to propagate CML in the secondary recipients were tracked.
Note that the LSCs were only treated with PGE1 or Misoprostol in the primary recipients for 2 weeks, and none of the secondary recipients were treated.
as §2

SMILES: CN1CCC2=C[C@H](O)[C@H]3OC(=O)c4cc5c(cc4[C@H]3[C@@H]21)OCO5 [Hippeastrine hydrobromide]
- effect on CML (CML): no effect on CML

SMILES: CC(/C=C/C(=O)NO)=C\[C@@H](C)C(=O)c1ccc(N(C)C)cc1 [Trichostatin A]
- effect on LSCs (LSCs [1]): strong effect on LSCs

SMILES: CN(C)CCCSC(=N)N [Dimaprit dihydrochloride]
- effect on CML (CML): no effect on CML

SMILES: O=C(CCCCCCC(=O)Nc1ccccc1)NO [Vorinostat]
- effect on LSCs (LSCs [1]): strong effect on LSCs
- toxicity to HSCs (HSCs): toxic to HSCs

SMILES: C=C[C@H]1C[N@@]2CC[C@H]1C[C@@H]2[C@@H](O)c1ccnc2ccccc12 [Cinchonine]
- effect on CML (CML): no effect on CML

SMILES: C=C1C[C@]23C[C@@]1(O)CC[C@H]2[C@@]12C=C[C@H](O)[C@@](C)(C(=O)O1)[C@H]2[C@@H]3C(=O)O [Gibberellic acid]
- effect on CML (CML): no effect on CML

SMILES: CCOC(=O)n1ccn(C)c1=S [Carbimazole]
- effect on CML (CML): no effect on CML

SMILES: Cc1ccc(NC(=O)c2ccc(CN3CCN(C)CC3)cc2)cc1Nc1nccc(-c2cccnc2)n1 [Imatinib]
- effect of Imatinib or co-therapy on survival of CML recipients (CML mouse model; Imatinib 100 mg/kg b.i.d. alone or with PGE1 2.5 mg/kg, days 8-80 post-BMT): substantially extend the survival; also recorded: extended the survival of CML mice
- day after BMT at which all CML mice had died (CML mouse model; Imatinib 100 mg/kg b.i.d., days 8-80 post-BMT): ~62 days
- day after secondary BMT at which secondary recipients died (LSCs [2]; LSCs treated in primary recipients days 8-21 post-BMT): ~40 days

SMILES: C=CC(N)CCC(=O)O (stereo not drawn) [Vigabatrin]
- effect on CML (CML): no effect on CML

SMILES: CCCCC[C@H](O)/C=C/[C@H]1[C@H](O)CC(=O)[C@@H]1C/C=C\CCCC(=O)O [PGE2, Prostaglandin E2]
- survival rate at about day 35 (CML mouse model; CML mice): about 10%
- time mice survived after bone marrow transplantation (BMT) before survival declined (CML mouse model; CML mice): approximately 17 days

SMILES: CCCCC[C@H](O)/C=C/[C@H]1[C@H](O)CC(=O)[C@@H]1CCCCCCC(=O)O [PGE1, Prostaglandin E1]
- survival rate at about day 35 (CML mouse model; CML mice): ~50%
- time mice survived after bone marrow transplantation (BMT) before survival declined (CML mouse model; CML mice): approximately 17 days
- greater survival rate compared to the PGE2 mice (CML mouse model; CML mice, about day 35): ~400%
- ability of treated LSCs to propagate CML in secondary recipients (LSCs [2]; two-week treatment in primary recipients): superior to Imatinib treatment; also recorded: much less efficient in propagating CML
